Measured values reported in article PMC9301721 (ACS Omega, 2022).

Columns and labels:
[1] = tested on: 14-3-3ε and FOXO3a interaction; settings: cells expressing the 9J10 probe; cited from earlier work
[2] = tested on: 14-3-3ε; settings: pull-down and mass spectrometry; cited from earlier work
[3] = target: the molecule itself; experiment: crystal structure

| Molecule | Interaction between 14-3-3ε and FOXO3a in cells expressing the probe [1] | 14-3-3 proteins interacting with probe (pull-down, MS) [2] | binding result [3] |
| --- | --- | --- | --- |
| LNTRPGRRRNpSN [9J10] | sharp reduction in the interaction between 14-3-3ε and FOXO3a | 14-3-3ε is one among the abundant 14-3-3 proteins interacting with 9J10 |  |
| 14-3-3εΔC (aa 1-232) (domain or fragment, human, UniProt P62258 1-232, looked up) MDDREDLVYQAKLAEQAERYDEMVESMKKVAGMDVELTVEERNLLSVAYKNVIGARRASWRIISSIEQKEENKGGEDKLKMIREYRQMVETELKLICCDILDVLDKHLIPAANTGESKVFYYKMKGDYHRYLAEFATGNDRKEAAENSLVAYKAASDIAMTELPPTHPIRLGLALNFSVFYYEILNSPDRACRLAKAAFDDAIAELDTLSEESYKDSTLIMQLLRDNLTLWT |  |  | binds |
